From patent publication US20090170878A1, “MACROCYCLIC COMPOUNDS USEFUL AS BACE INHIBITORS” (priority 2006, published 2009)
pIC50: −log10 of the molar value.

Target: T1, Human BACE (Homo sapiens, UniProt P56817)
T1 construct: Recombinant BACE (extracellular domain, expressed in baculovirus and purified using standard methods); made in house; host or cells: baculovirus expression system (insect cells)
Test: Test 1: Inhibition of Human BACE
Type: biochemical
Conditions: recombinant BACE extracellular domain, fluorescence-quenched APP-derived peptide substrate, pH 4.5
Procedure: Test 1: Inhibition of Human BACE
Recombinant BACE (extracellular domain, expressed in baculovirus and purified using standard methods) at 0.1 to 10 nM concentrations is incubated with the test compound at various concentrations for 1 hour at room temperature in 10 to 100 mM acetate buffer, pH 4.5, containing 0.1% CHAPS. Synthetic fluorescence-quenched peptide substrate, derived from the sequence of APP and containing a suitable fluorophore-quencher pair, is added to a final concentration of 1 to 5 μM, and the increase in fluorescence is recorded at a suitable excitation/emission wavelength in a microplate spectro-fluorimeter for 5 to 30 minutes in 1-minute intervals. IC50 values are calculated from percentage of inhibition of BACE-activity as a function of the test compound concentration.

T1 sequence (P56817 46-457 limits assumed): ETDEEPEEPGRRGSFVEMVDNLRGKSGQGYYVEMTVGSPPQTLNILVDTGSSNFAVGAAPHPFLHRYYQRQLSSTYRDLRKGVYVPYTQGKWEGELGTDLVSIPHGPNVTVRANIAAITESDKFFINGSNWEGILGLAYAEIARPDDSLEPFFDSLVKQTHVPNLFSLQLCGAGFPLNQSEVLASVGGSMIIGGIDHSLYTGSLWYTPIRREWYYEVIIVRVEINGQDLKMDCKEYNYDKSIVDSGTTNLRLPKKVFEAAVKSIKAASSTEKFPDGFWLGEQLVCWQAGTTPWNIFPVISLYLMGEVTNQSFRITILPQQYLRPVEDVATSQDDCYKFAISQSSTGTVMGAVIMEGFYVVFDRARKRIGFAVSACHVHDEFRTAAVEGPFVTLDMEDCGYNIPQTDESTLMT

- pIC50: 7.52
SMILES: CC(C)c1cccc(C2(NC[C@@H](O)[C@@H]3C[C@H](C)CCCCCCCCC(=O)N(C)[C@@H](C)C(=O)N3)CC2)c1 [Example 1, (3S,14R,16S)-16-{(R)-1-Hydroxy-2-[1-(3-isopropyl-phenyl)-cyclopropylamino]-ethyl}-3,4,14-trimethyl-1,4-diaza-cyclohexadecane-2,5-dione]
